Measured values published in ChEMBL document CHEMBL2390827, “Ligand-based design, synthesis, and experimental evaluation of novel benzofuroxan derivatives as anti-Trypanosoma cruzi agents” (Eur J Med Chem, 2013).
pIC50: −log10 of the molar value. Active and inactive are the calls of the source. The rule behind the calls is not given here.

Assays:
[1] = Cytotoxicity against human fibroblasts assessed as growth inhibition after 24 hrs by MTT assay; assay type: cell-based; settings: Fibroblast
[2] = Selectivity index, ratio of IC50 for human fibroblasts to GI50 for epimastigote stage of Trypanosoma cruzi Y
[3] = tested on: Trypanosoma cruzi; assay: Antitrypanosomal activity against epimastigote stage of Trypanosoma cruzi Y assessed as parasite growth inhibition after 5 days by spectrophotometric analysis; assay type: functional

Row | SMILES | log1/GI50 [3] | GI50 ([3]; Trypanosoma cruzi, Y, 120 h) [µM] | GI50 [3] | pIC50 [1] | Selectivity Index [2]
1 | O=C(N/N=C/c1ccc2c(c1)no[n+]2[O-])c1ccc(O)cc1 |  |  | inactive |  | 
2 | COc1ccc(C(=O)N/N=C/c2ccc3c(c2)no[n+]3[O-])cc1 | 4.88 | 13.2 |  |  | 
3 | O=C(Cn1ccnc1[N+](=O)[O-])NCc1ccccc1 [BENZNIDAZOLE] | 4.68 | 22.7 |  | < 3.70 | >9.6
4 | O=C(N/N=C/c1ccc([N+](=O)[O-])o1)c1ccc(O)cc1 [NIFUROXAZIDE] | 3.92 | 120 |  | 4.11 | 0.64
5 | O=C(N/N=C/c1ccc2c(c1)no[n+]2[O-])c1ccc(Cl)cc1 | 5 | 9.96 |  |  | 
6 | CCc1ccc(C(=O)N/N=C/c2ccc3c(c2)no[n+]3[O-])cc1 | 5 | 9.91 |  |  | 
7 | CCCCc1ccc(C(=O)N/N=C/c2ccc3c(c2)no[n+]3[O-])cc1 | 5.43 | 3.72 |  | < 3.70 | >53.76
8 | CC(=O)c1ccc(C(=O)N/N=C/c2ccc3c(c2)no[n+]3[O-])cc1 | 4.8 | 16 |  |  | 
9 | Nc1ccc(C(=O)N/N=C/c2ccc3c(c2)no[n+]3[O-])cc1 | 3.93 | 117 |  | < 3.70 | 1.71
10 | CCOc1ccc(C(=O)N/N=C/c2ccc3c(c2)no[n+]3[O-])cc1 | 5.02 | 9.62 |  |  | 
11 | CCCCOc1ccc(C(=O)N/N=C/c2ccc3c(c2)no[n+]3[O-])cc1 | 5.24 | 5.78 |  | < 3.70 | >34.6
12 | CCCOc1ccc(C(=O)N/N=C/c2ccc3c(c2)no[n+]3[O-])cc1 | 5.39 | 4.07 |  | < 3.70 | >49.14
13 | O=C(N/N=C/c1ccc2c(c1)no[n+]2[O-])c1ccc(I)cc1 | 5.21 | 6.11 |  | < 3.70 | >32.73
14 | N#Cc1ccc(C(=O)N/N=C/c2ccc3c(c2)no[n+]3[O-])cc1 | 4.58 | 26.6 |  |  | 
15 | NS(=O)(=O)c1ccc(C(=O)N/N=C/c2ccc3c(c2)no[n+]3[O-])cc1 | 4.22 | 60.4 |  | 4.22 | 0.99
16 | O=C(N/N=C/c1ccc2c(c1)no[n+]2[O-])c1ccc(Br)cc1 | 5.11 | 7.78 |  | < 3.70 | >25.71
17 | O=C(N/N=C/c1ccc2c(c1)no[n+]2[O-])c1ccc(Cl)cc1Cl | 5.02 | 9.54 |  | 4.42 | 4.01
18 | CC(C)c1ccc(C(=O)N/N=C/c2ccc3c(c2)no[n+]3[O-])cc1 | 5.15 | 7.12 |  | < 3.70 | >28.09

Second part, led by results:

Row | log1/GI50 [3] | GI50 ([3]; Trypanosoma cruzi, Y, 120 h) [µM] | GI50 [3] | SMILES | pIC50 [1] | Selectivity Index [2]
19 | 5.52 | 3.04 |  | CCCc1ccc(C(=O)N/N=C/c2ccc3c(c2)no[n+]3[O-])cc1 | < 3.70 | >65.79
20 | 4.77 | 16.9 |  | O=C(N/N=C/c1ccc2c(c1)no[n+]2[O-])c1ccccc1 |  | 
21 | 5.04 | 9.07 |  | O=C(N/N=C/c1ccc2c(c1)no[n+]2[O-])c1ccc(Cl)c(Cl)c1 | 4.19 | 7.17
22 | 5.42 | 3.78 |  | CC1CS(=O)(=O)CCN1/N=C/c1ccc([N+](=O)[O-])o1 (stereo unspecified) [NIFURTIMOX] | < 3.70 | >52.91
23 | 4.82 | 15.3 |  | O=C(N/N=C/c1ccc2c(c1)no[n+]2[O-])c1ccc(F)cc1 |  | 
24 | 5.24 | 5.45 |  | CC(C)(C)c1ccc(C(=O)N/N=C/c2ccc3c(c2)no[n+]3[O-])cc1 | < 3.70 | >36.7
25 | 4.8 | 15.9 |  | O=C(N/N=C/c1ccc2c(c1)no[n+]2[O-])c1ccc([N+](=O)[O-])c(C(F)(F)F)c1 |  | 
26 | 4.93 | 11.9 |  | Cc1ccc(C(=O)N/N=C/c2ccc3c(c2)no[n+]3[O-])cc1 |  | 
27 | 4.75 | 17.8 |  | O=C(N/N=C/c1ccc2c(c1)no[n+]2[O-])c1ccc([N+](=O)[O-])cc1 |  | 
28 |  |  | inactive | CN(C)c1ccc(C(=O)N/N=C/c2ccc3c(c2)no[n+]3[O-])cc1 |  | 
29 | 5.02 | 9.62 |  | O=C(N/N=C/c1ccc2c(c1)no[n+]2[O-])c1ccc(C(F)(F)F)cc1 |  | 
